The values that follow come from ChEMBL document CHEMBL1147871, “Synthesis and antioxidant activity of new homocarnosine beta-cyclodextrin conjugates” (Eur J Med Chem, 2007).

The structures appear in SMILES notation.

What all share (type): functional
A short description of test [1]: Protective effect on copper-induced LDL oxidation at 8:1 copper to drug ratio relative to 40 uM copper.
A short description of test [2]: Effect on copper-induced human LDL peroxidation assessed as inhibition of malonaldehyde production at 100 uM after 4 hrs. Also noted: scale not given: the % may be the effect or the level left.
A short description of test [3]: Effect on copper-induced human LDL peroxidation assessed as inhibition of malonaldehyde production at 20 uM after 4 hrs. Also noted: scale not given: the % may be the effect or the level left.
A short description of test [4]: Effect on copper-induced human LDL peroxidation assessed as inhibition of malonaldehyde production at 2 uM after 4 hrs. Details: scale not given: the % may be the effect or the level left.
The nature of test [5]: Protective effect on copper-induced LDL oxidation at 1:5 copper to drug ratio relative to 40 uM copper.
Test [6] can be described thus: Protective effect on copper-induced LDL oxidation at 2:1 copper to drug ratio relative to 40 uM copper.
Test [7] in a line: Effect on copper-induced human LDL peroxidation assessed as inhibition of malonaldehyde production at 5 uM after 4 hrs. Also noted: scale not given: the % may be the effect or the level left.
A short description of test [8]: Effect on copper-induced human LDL peroxidation assessed as inhibition of malonaldehyde production at 10 uM after 4 hrs. Details: scale not given: the % may be the effect or the level left.
Test [9] is described as follows: Protective effect on copper-induced LDL oxidation at 1:2.5 copper to drug ratio relative to 40 uM copper.
Test [10] can be described thus: Effect on copper-induced human LDL peroxidation assessed as inhibition of malonaldehyde production at 50 uM after 4 hrs. Also noted: scale not given: the % may be the effect or the level left.
Test [11] in a line: Effect on copper-induced human LDL peroxidation assessed as inhibition of malonaldehyde production at 200 uM after 4 hrs. Details: scale not given: the % may be the effect or the level left.
The nature of test [12]: Protective effect on copper-induced LDL oxidation at 4:1 copper to drug ratio relative to 40 uM copper.
Test [13] can be described thus: Protective effect on copper-induced LDL oxidation at 1:1.25 copper to drug ratio relative to 40 uM copper.
Test [14] is described as follows: Protective effect on copper-induced LDL oxidation at 20:1 copper to drug ratio relative to 40 uM copper.

Consider `NCCC(=O)N[C@@H](Cc1c[nH]cn1)C(=O)O`, for which the Activity was determined as 1% in test [1]; 15.1% in [2]; 2.72% in [3]; 0.28% in test [4]; 22% in [5]; 3% in [6]. The Activity in [7] amounted to 0.93%; in test [8] it was 1.38%; in [9], 15%; in test [10], 9.13%; in test [11], 22.5%; in test [12] it was 1%. Further, the figures for the Activity in test [13] and in test [14] were 9% and 0%, respectively.

On to `NCCCC(=O)N[C@@H](Cc1cnc[nH]1)C(=O)O`, for which the Activity in [1] is 1%; in [2], 12.1%; in test [3], 2.5%; in test [4], 0.31%; in test [5] it was 18%; in test [6] it was 3%. Besides, the Activity in test [7] came out at 1.02%; in test [8] it was 1.86%; in test [9] it was 12%; in test [10], 8.28%; in test [11], 17.6%; in [12], 2%. The Activity in test [13] was 8%; in test [14] it was 0%.

Regarding `OC[C@H]1O[C@@H]2O[C@H]3[C@H](O)[C@@H](O)[C@@H](O[C@H]4[C@H](O)[C@@H](O)[C@@H](O[C@H]5[C@H](O)[C@@H](O)[C@@H](O[C@H]6[C@H](O)[C@@H](O)[C@@H](O[C@H]7[C@H](O)[C@@H](O)[C@@H](O[C@H]8[C@H](O)[C@@H](O)[C@@H](O[C@H]1[C@H](O)[C@H]2O)O[C@@H]8CO)O[C@@H]7CO)O[C@@H]6CO)O[C@@H]5CO)O[C@@H]4CO)O[C@@H]3CO`, the Activity in [2] came to 6.94%; in test [3] it was 1.26%; in [4], 0.11%; in test [7] it was 0.38%; in test [8], 0.65%; in test [10] it was 3.87%. Also, the Activity in test [11] came out at 10.7%.
